Measured values from BigSolDB 2.1.

Nc1ccc(S(=O)(=O)Nc2ncccn2)cc1
solubility (mole fraction)
Conditions	278.15 K	283.15 K	288.15 K	293.15 K	298.15 K	303.15 K	308.15 K	313.15 K	318.15 K
in ethylene glycol	0.00034	0.000379	0.000413	0.00047	0.000532	0.000575	0.000637	0.000694	0.000752
in water	1.61e-06	2.01e-06	2.86e-06	3.8e-06	4.81e-06	6.49e-06	8.69e-06	1.14e-05	1.22e-05
